Source: patent publication US20170275270A1, “BENZYL SUBSTITUTED INDAZOLES” (Bayer Pharma Aktiengesellschaft, priority 2014, published 2017)
Structures can show the parent of a compound that is named as a salt. Where two headings read alike, the source gives them in different places.

Assays:
HeLa = assay: Proliferation assay (HeLa cell line); details: Homo sapiens, 96 h, read-out: Biological Assay 2: Proliferation assay (HeLa cell line) median IC50;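 also: crystal violet staining of cell number, scaled between a plate stained before dosing (0%) and cells left untreated (100%), compounds tested at 0.001-10 µM, IC50 via 4-parameter fit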
[1] = target: T1, catalytic domain of human Bub1 (amino acids 704-1085) (Homo sapiens, UniProt O43683); assay: Bub1 kinase assay (TR-FRET); format: biochemical
T1 construct: catalytic domain of human Bub1 (amino acids 704-1085); His6 (N); made in house; host or cells: Hi5 insect cells
T1 sequence (O43683 704-1085): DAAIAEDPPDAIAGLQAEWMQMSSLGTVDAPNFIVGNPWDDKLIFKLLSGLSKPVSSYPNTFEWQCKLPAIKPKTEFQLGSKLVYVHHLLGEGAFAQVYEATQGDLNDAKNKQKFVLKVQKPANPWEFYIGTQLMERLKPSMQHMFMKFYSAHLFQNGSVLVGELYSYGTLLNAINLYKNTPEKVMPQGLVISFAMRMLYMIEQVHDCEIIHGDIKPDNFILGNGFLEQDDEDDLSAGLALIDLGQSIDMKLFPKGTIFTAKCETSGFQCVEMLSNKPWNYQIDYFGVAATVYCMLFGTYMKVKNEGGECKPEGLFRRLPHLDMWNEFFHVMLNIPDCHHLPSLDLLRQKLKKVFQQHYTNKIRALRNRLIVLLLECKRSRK
Summary of the method: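 TR-FRET read-out (Eu-anti-mouse IgG/anti-phosphoserine antibody to streptavidin-XL665 on biotinylated peptide) after EDTA stop and 1 h complex formation at 22° C. Kinase reaction ran 60 min at 22° C with 1:3.4 serial dilutions from 2 mM DMSO stocks. IC50 from 4-parameter logistic fit of normalized inhibition.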

Bub1 = Bub1 (Homo sapiens, UniProt O43683); assay: Formation-Assay: phosphorylation status of histone 2A by inhibition of kinase activity of Bub1; format: cell-based; details: Biological Assay 4.1: H2A Formation IC50, co-treatment with Nocodazole 1 μg/ml, 16 h
Bub1, sequence (O43683 whole entry): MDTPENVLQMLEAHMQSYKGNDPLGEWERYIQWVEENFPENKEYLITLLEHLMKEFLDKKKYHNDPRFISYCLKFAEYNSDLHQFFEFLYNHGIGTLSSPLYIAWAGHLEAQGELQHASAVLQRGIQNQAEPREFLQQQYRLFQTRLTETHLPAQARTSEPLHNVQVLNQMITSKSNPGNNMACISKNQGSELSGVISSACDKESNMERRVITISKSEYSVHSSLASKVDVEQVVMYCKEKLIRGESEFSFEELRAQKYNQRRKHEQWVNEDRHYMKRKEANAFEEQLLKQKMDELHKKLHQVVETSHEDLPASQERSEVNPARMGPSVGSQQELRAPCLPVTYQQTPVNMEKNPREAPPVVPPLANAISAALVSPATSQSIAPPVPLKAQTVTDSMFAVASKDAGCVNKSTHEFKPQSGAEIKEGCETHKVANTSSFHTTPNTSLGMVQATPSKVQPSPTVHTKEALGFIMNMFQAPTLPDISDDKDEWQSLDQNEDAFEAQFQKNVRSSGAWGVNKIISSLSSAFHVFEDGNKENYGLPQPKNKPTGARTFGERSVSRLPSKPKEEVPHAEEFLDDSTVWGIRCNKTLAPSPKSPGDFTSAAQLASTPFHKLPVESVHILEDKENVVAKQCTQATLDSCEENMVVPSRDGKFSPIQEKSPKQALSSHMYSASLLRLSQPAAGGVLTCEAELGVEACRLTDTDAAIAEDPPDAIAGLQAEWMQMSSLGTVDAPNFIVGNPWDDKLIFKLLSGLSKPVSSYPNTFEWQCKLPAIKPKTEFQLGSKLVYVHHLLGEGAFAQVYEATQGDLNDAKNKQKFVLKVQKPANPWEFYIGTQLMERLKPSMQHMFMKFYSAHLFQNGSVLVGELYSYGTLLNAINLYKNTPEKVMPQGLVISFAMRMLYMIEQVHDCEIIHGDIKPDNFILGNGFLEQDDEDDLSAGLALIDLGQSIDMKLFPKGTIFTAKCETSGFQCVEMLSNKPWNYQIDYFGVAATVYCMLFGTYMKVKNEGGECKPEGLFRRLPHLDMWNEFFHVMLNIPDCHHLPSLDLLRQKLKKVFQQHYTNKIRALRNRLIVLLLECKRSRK
Summary of the method: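 Cells co-treated 16 h with Nocodazole (1 μg/ml) and compound (3 nM–10 μM), then fixed and immunostained for phospho-H2A, read by infrared imaging (800 nm) normalised to cell stain (700 nm). Nocodazole-only set as 100%, untreated cells as 0%.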

[2] = test system: HeLa human cervical tumor cells; assay: Proliferation assay (HeLa+Paclitaxel); details: read-out: Biological Assay 3: HeLa + Paclitaxel IC50, 3 nM paclitaxel, crystal violet;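 also: compounds at 0.001-10 µM added 4 h after paclitaxel, 92 h exposure, absorbance normalized to zero-point plate (0%) and untreated cells (100%), IC50 from 4-parameter fit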
Description: Proliferation Assay (HeLa+Paclitaxel):
Cultivated HeLa human cervical tumor cells (DSMZ ACC-57) were plated at a density of 3000 cells/well in a 96-well multititer plate in 200 μL of growth medium supplemented 10% fetal calf serum. After 24 hours, the cells of one plate (zero-point plate) were stained with crystal violet (see below). The medium of the other plates was supplemented with 3 nM of paclitaxel (Sigma-Aldrich) and the cells were incubated at 37° C. After 4 hours the test substances were added in various concentrations (0 μM, as well as in the range of 0.001-10 μM; the final concentration of the solvent dimethyl sulfoxide was adjusted to 0.1%) using a Hewlett-Packard HP D300 Digital Dispenser. The cells were incubated for another 92 hours at 37° C. in the presence of test substances. Cell proliferation was determined by staining the cells with crystal violet: the cells were fixed by adding 20 μL/measuring point of an 11% glutaric aldehyde solution for 15 minutes at room temperature. After three washing cycles of the fixed cells with water, the plates were dried at room temperature. The cells were stained by adding 100 μL/measuring point of a 0.1% crystal violet solution (pH 3.0). After three washing cycles of the stained cells with water, the plates were dried at room temperature. The dye was dissolved by adding 100 μL/measuring point of a 10% acetic acid solution. […] The change of cell number, in percent, was calculated by normalization of the measured values to the absorbtion values of the zero-point plate (=0%) and the absorbtion of the untreated (0 μm) cells (=100%). The IC50 values were determined by means of a 4 parameter fit.

[3] = 10 μM ATP, read-out: Biological Assay 1: Bub1 kinase assay median IC50
[4] = Biological Assay 1: Bub1 kinase assay median IC50, 10 μM ATP

SMILES	IC50 (HeLa) [nM]	IC50 [1, 3] [nM]	IC50 (Bub1) [nM]	IC50 [2] [nM]	IC50 [1, 4] [nM]
CCOc1cc(F)c(Cn2nc(-c3ncc(CCN)c(Nc4ccncc4)n3)c3ccccc32)c(F)c1 [Example 2-9-2, 5-(2-aminoethyl)-2-[1-(4-ethoxy-2,6-difluorobenzyl)-1H-indazol-3-yl]-N-(pyridin-4-yl)pyrimidin-4-amine]	1100	8.8	1600	360	
CCOc1cc(F)c(Cn2nc(-c3nc4c(c(Nc5ccncc5C)n3)CCCC4)c3ccccc32)c(F)c1 [Example 2-19-20, 2-[1-(4-ethoxy-2,6-difluorobenzyl)-1H-indazol-3-yl]-N-(3-methylpyridin-4-yl)-5,6,7,8-tetrahydroquinazolin-4-amine]	5200	7	49	120	
Cc1nccc(Nc2nc(-c3nn(Cc4c(F)cc(OCCO)cc4F)c4ccccc34)nc3c2CCC(C)(C)C3)n1 [Example 2-6-24, 2-{4-[(3-{7,7-dimethyl-4-[(2-methylpyrimidin-4-yl)amino]-5,6,7,8-tetrahydroquin-azolin-2-yl}-1H-indazol-1-yl)methyl]-3,5-difluorophenoxy} ethanol]	> 10000		14	150	120
Cc1cc(Nc2nc(-c3nn(Cc4c(F)cc(OCCO)cc4F)c4ccccc34)nc3c2CCC3)ncn1 [Example 2-4-11, 2-{3,5-difluoro-4-[(3-{4-[(6-methylpyrimidin-4-yl)amino]-6,7-dihydro-5H-cyclopenta[d]pyrimidin-2-yl}-1H-indazol-1-yl)methyl]phenoxy}ethanol]	> 10000		1900	120	88

More lines, in order of falling IC50 (HeLa), values ahead:

IC50 (HeLa) [nM]	IC50 [1, 3] [nM]	IC50 (Bub1) [nM]	IC50 [2] [nM]	IC50 [1, 4] [nM]	SMILES
3700	90	2.9	260		CCOc1cc(F)c(Cn2nc(-c3ncc(CN)c(Nc4ccnc(C(F)F)c4)n3)c3ccccc32)c(F)c1 [Example 2-9-6, 5-(aminomethyl)-N-[2-(difluoro-methyl)pyridin-4-yl]-2-[1-(4-ethoxy-2,6-difluorobenzyl)-1H-indazol-3-yl]pyrimidin-4-amine, salt with hydrochloric acid]
3600	37	2.7	270		CCOc1cc(F)c(Cn2nc(-c3nc4c(c(Nc5ccncn5)n3)CCC4)c3ccccc32)c(F)c1 [Example 2-14-6, 2-[1-(4-ethoxy-2,6-difluorobenzyl)-1H-indazol-3-yl]-N-(pyrimidin-4-yl)-6,7-dihydro-5H-cyclopenta[d]pyrimidin-4-amine]
1800		8.9	420	5.2	CCOc1cc(F)c(Cn2nc(-c3nc(COC)cc(Nc4ccncc4)n3)c3ccccc32)c(F)c1 [Example 2-12-4, 2-[1-(4-ethoxy-2,6-difluorobenzyl)-1H-indazol-3-yl]-6-(methoxymethyl)-N-(pyridin-4-yl)pyrimidin-4-amine]
1700		20	160	6.1	CCOc1cc(F)c(Cn2nc(-c3nc4c(c(Nc5ccncc5)n3)CCNC4)c3ccccc32)c(F)c1 [Example 2-18-1, 2-[1-(4-ethoxy-2,6-difluorobenzyl)-1H-indazol-3-yl]-N-(pyridin-4-yl)-5,6,7,8-tetrahydropyrido[3,4-d]pyrimidin-4-amine]
1100		12	170	6.1	CCOc1cc(F)c(Cn2nc(-c3ncc(C4CCNCC4)c(Nc4ccncc4)n3)c3ccccc32)c(F)c1 [Example 2-17-1, 2-[1-(4-ethoxy-2,6-difluorobenzyl)-1H-indazol-3-yl]-5-(piperidin-4-yl)-N-(pyridin-4-yl)pyrimidin-4-amine]
940	2.9	13	120		CCOc1cc(F)c(Cn2nc(-c3nc4c(c(Nc5ccncc5OC)n3)CCC4)c3ccccc32)c(F)c1 [Example 2-14-4, 2-[1-(4-ethoxy-2,6-difluorobenzyl)-1H-indazol-3-yl]-N-(3-methoxypyridin-4-yl)-6,7-dihydro-5H-cyclopenta[d]pyrimidin-4-amine]
